According to article PMC2607020, “An Unusual Helix Turn Helix Motif in the Catalytic Core of HIV-1 Integrase Binds Viral DNA and LEDGF” (PLoS ONE, 2009):
pKd: −log10 of the molar value. Entries after “also recorded” stand apart in the source; their conditions may differ. Read-outs that look alike come from different tables or passages of the source.

How the values were obtained:
LEDGF-IBD (wt IBD) = target: T1, LEDGF-IBD (wt IBD) (Homo sapiens, UniProt O75475); assay: Fluorescence anisotropy titration of fluorescein-grafted HTHi by wt LEDGF-IBD; type: binding; conditions: fluorescein-grafted HTHi 50 nM titrated by wt LEDGF-IBD; pH 6.0; 5°C
T1 construct: The wt IBD is the fragment 347–471 of LEDGF (GST removed); GST (cleaved yes)
T1 sequence (O75475 347-471): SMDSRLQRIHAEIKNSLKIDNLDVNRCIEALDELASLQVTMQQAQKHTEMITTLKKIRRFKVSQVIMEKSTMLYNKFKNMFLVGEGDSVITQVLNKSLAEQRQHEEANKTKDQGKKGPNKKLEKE
Excerpt: (§1) Like the whole protein, these contain no Trp.

[1] = test system: Asp366Asn-IBD variant of LEDGF; conditions: fluorescence anisotropy; fluorescein-labeled HTHi 50 nM; pH 6.0; 5°C
Protocol: The wt IBD is the fragment 347–471 of LEDGF (GST removed) [33], [51], [52]. The mutant IBD is the Asp366Asn version of the former. Like the whole protein, these contain no Trp. […] The proteins were used in the “reaction buffer” containing 20 mM HEPES (pH 6.8), 10 mM MgCl2 and 10 mM DTT.
Intrinsic fluorescence quantum yield and fluorescence anisotropy studies were carried out with a Jobin-Yvon Fluoromax II instrument (HORIBA Jobin-Yvon, France) equipped with an ozone-free 150 W xenon lamp. The samples (800 µl) were placed at 5°C in thermally jacketed 1 cm×0.5 cm quartz cells. At least ten measurements for each titration point were recorded with an integration time of 5 sec.
The fluorescence anisotropy of the fluorescein-conjugated version of HTHi (50 nM) titrated by wt and mutated IBD in the “assay buffer” was used to evaluate the Kd of the LEDGF-HTHi complex.

wt IN [2] = conditions: intrinsic fluorescence of IN; similar conditions; ref [30]; cited from earlier work
Protocol: In a previous study, based on the intrinsic fluorescence properties of IN conferred by its six Trp residues, we have shown the ability of peptide INH5 (Table 1a) to interact with IN with a concentration midpoint (C0.5) of 168 nM [30].

IN = conditions: ref [30]; cited from earlier work
Protocol: In a previous study, based on the intrinsic fluorescence properties of IN conferred by its six Trp residues, we have shown the ability of peptide INH5 (Table 1a) to interact with IN with a concentration midpoint (C0.5) of 168 nM [30]. […] There are examples in the literature showing that the so-called stabilizing helix of HTH motifs is involved in the protein dimerization. This is the case of topoisomerase II, in which the binding site to DNA is fashioned from the interaction of two HTH motifs. The implication of the α5 helix in the enzyme structure and activity has been highlighted in our previous report showing that peptide INH ...

viral DNA = assay: Specific binding of peptide to viral DNA (general statement); parameters: species or system HIV-1; conditions: Discussion
LTR34f5′ [3] = conditions: LTR34f5′ vs LTR34fm; ref [43]; cited from earlier work
Excerpt: (§2) In a previous work we pointed out the importance of the conformational entropy in the binding of the α4 helix to the viral DNA. In order to reduce this effect, we had designed an analog of the α4 peptide that had its secondary structure stabilized by helicogenic mutations (Gly149Ala, Ile161Leu, Ile162Leu and Gly163Ala). The resulting peptide, K156, was a good mimic of the α4 helix in the protein context and was better organized for binding than peptide α4.

LTR34fm [4] = conditions: ref [43], cited from earlier work
Excerpt: as §2

[5] = target: CRE (cAMP response element); conditions: negative control sequence CRE; ref [43]; read-out: Kd (non-specific binding); cited from earlier work
Excerpt: The behavior of peptide HTHi is similar to that of peptide K156.

[6] = Circular dichroism of free peptide (secondary structure, oligomerisation); type: physicochemical
Excerpt: They were made according to the Fmoc procedure, as already reported for peptide α4, for its “stabilized” analogue i.e., peptide K156, and for the peptide INH5, derived from the α5 helix, [43]. Peptide α4 reproduces the α4 helix sequence of IN; peptide K156 is a variant of the α4 peptide resulting from the replacement of weakly helicogenic residues by more helicogenic ones in several biologically irrelevant positions; peptide INH5 contains both the α5 helix and the turn connecting the α5 helix to the α4 helix. The peptides HTHi and wt HTHi reproduce the sequences of the HTHi motifs in the IN-Phe185Lys variant and in wt IN respectively. A version of the HTHi peptide with a carboxyfluorescein at the N-terminus has also been prepared. Tyr or Trp aromatic residues, when absent in the native sequences, were purposely added in order to enable peptide quantification by UV absorption spectra. Peptide concentrations were determined using a molar absorption coefficient at 280 nm equal to 1 280 M^−1 cm^−1 for the tyrosine-containing peptides α4, INH5 and HTHi and 5600 M^−1 cm^−1 for the tryptophane-containing peptides K156 and […].
CD spectra were recorded on a Jobin-Yvon CD6 dichrograph (HORIBA Jobin-Yvon, France). Peptide concentrations varied from 5 to 25 µM in the “assay buffer”, containing 40 mM sodium phosphate, 0.5 mM EDTA, pH 6.0. The samples, incubated 10 min at the chosen temperature to allow the solutions to reach their equilibrium state, were placed in thermally jacketed cells with a 1 mm path length. The spectra, recorded in 1 nm steps, were averaged over ten scans and corrected for the base line, then presented as differential molar absorptivities per residue, Δε (M^−1 cm^−1), for peptides, and as difference spectra (complex minus DNA), for peptide-DNA complexes. For the HTHi-LTR interaction, aliquots of peptide were added to LTR34 (10 µM) and the control spectrum of unliganded LTR was subtracted from that of the complex. Recall that in a simple random coil – α helix equilibrium, the α-helix content of peptides could be approximated by the relation: Pα = −[Δε222×10] (Pα: percentage of α helix; Δε222: differential molar absorptivity per residue at 222 nm).

wt IN [7] = assay: Quenching of the intrinsic fluorescence of wt IN by peptide; type: binding, HIV-1; conditions: wt IN 100 nM monomer; Trp fluorescence quenching, excitation 295 nm; 20 mM HEPES pH 6.8, 10 mM MgCl2, 10 mM DTT; 5°C
Protocol: as §1
The intrinsic fluorescence of wt IN was measured at 100 nM monomer concentration, in the “reaction buffer” (see above). The Trp residues were excited at 295 nm and emission was recorded between 305 and 450 nm, with 2 nm and 5 nm excitation and emission slit widths, respectively. A maximal emission was obtained at 337 nm. Quenching of the fluorescence of IN following the addition of HTHi or of peptide α4 (devoid of Trp) was expressed as 1-F/F0, where F0 is the fluorescence of the enzyme in the absence of peptide.

LTR34fm [8] = assay: Fluorescence anisotropy titration of LTR34fm by peptide; type: binding, HIV-1; conditions: LTR34fm 20 nM, curve fitting, ±10% uncertainty, 40 mM sodium phosphate, 0.5 mM EDTA, pH 6.0, 5°C
Excerpt: (§3) The oligonucleotides (Table 1b) were purchased from Cybergene ESGS (France) and Eurogentec (Belgium). The choice of monomolecular hairpin-forming oligonucleotides, rather than bimolecular duplex-forming ones, was motivated by the need for stability under the low concentrations inherent to the fluorescence anisotropy experiments. The fluorescein reporter group is grafted either to the central T nucleotide (LTR34fm) or to the 5′ extremity (LTR34f5′ and CRE). The CRE (cAMP responsive element) sequence was used as negative control. The version of LTR34 without fluorescein was used in CD studies.
(§4) Fluorescence anisotropy titration, [75]. Fluorescein-labeled oligonucleotides were used at 20 nM in the “assay buffer” (see Table 1b and above). With fluorescein as fluorophore, excitation and emission were at 488 nm and 516 nm, with 4 nm and 5 nm slits, respectively. Peptides were added to DNA as successive aliquots. For each anisotropy measurement, the parallel [drawing 1] and the perpendicular [drawing 2] intensities of the background solution (i.e., buffer and protein contributions) were subtracted from those of the sample.

LTR34f5′ [9] = assay: Fluorescence anisotropy titration of LTR34f5′ by peptide; type: binding, HIV-1
Excerpt: as §3, §4

[10] = target: CRE (cAMP response element); assay: Fluorescence anisotropy titration of CRE (negative control sequence) by peptide; conditions: CRE 20 nM, curve fitting, ±10% uncertainty, 40 mM sodium phosphate, 0.5 mM EDTA, pH 6.0, 5°C, read-out: Kd (non-specific binding)
Excerpt: as §3, §4

LTR34 = assay: Circular dichroism of peptide-DNA complex (difference spectrum); type: binding, HIV-1; conditions: HTHi 6 µM + LTR34 10 µM, 40 mM sodium phosphate, 0.5 mM EDTA, pH 6.0
Excerpt: as §3
CD spectra were recorded on a Jobin-Yvon CD6 dichrograph (HORIBA Jobin-Yvon, France). Peptide concentrations varied from 5 to 25 µM in the “assay buffer”, containing 40 mM sodium phosphate, 0.5 mM EDTA, pH 6.0. The samples, incubated 10 min at the chosen temperature to allow the solutions to reach their equilibrium state, were placed in thermally jacketed cells with a 1 mm path length. The spectra, recorded in 1 nm steps, were averaged over ten scans and corrected for the base line, then presented as differential molar absorptivities per residue, Δε (M^−1 cm^−1), for peptides, and as difference spectra (complex minus DNA), for peptide-DNA complexes. […]

Compound: CC[C@H](C)[C@H](NC(=O)[C@H](Cc1ccccc1)NC(=O)[C@@H](NC(=O)[C@H](C)NC(=O)[C@H](CCSC)NC(=O)[C@H](CCC(N)=O)NC(=O)[C@@H](NC(=O)[C@H](C)NC(=O)[C@@H](NC(=O)[C@H](CCCCN)NC(=O)[C@H](CC(C)C)NC(=O)[C@H](Cc1c[nH]cn1)NC(=O)[C@H](CCC(=O)O)NC(=O)[C@H](C)NC(=O)[C@H](CCC(N)=O)NC(=O)[C@H](CC(=O)O)NC(=O)[C@H](CCCNC(=N)N)NC(=O)[C@@H](NC(=O)[C@H](CCC(N)=O)NC(=O)CNC(=O)[C@@H](NC(=O)[C@@H](NC(=O)[C@H](CCCCN)NC(=O)[C@H](CCCCN)NC(=O)[C@H](CC(C)C)NC(=O)[C@H](CCC(=O)O)NC(=O)[C@H](CCCCN)NC(=O)[C@H](CC(N)=O)NC(=O)[C@H](CCSC)NC(=O)[C@H](CO)NC(=O)[C@H](CCC(=O)O)NC(=O)[C@@H](NC(=O)[C@@H](NC(=O)CNC(=O)[C@H](Cc1ccc(O)cc1)NC(=O)c1ccc2c(c1)C(=O)OC21c2ccc(O)cc2Oc2cc(O)ccc21)C(C)C)[C@@H](C)CC)[C@@H](C)CC)[C@@H](C)CC)C(C)C)[C@@H](C)O)C(C)C)C(C)C)C(=O)N[C@@H](Cc1c[nH]cn1)C(=O)N[C@@H](CC(N)=O)C(=O)N[C@@H](CCCCN)C(=O)N[C@@H](CCCCN)C(=O)N[C@@H](C)C(=O)O [fluorescein-grafted HTHi peptide]
- Hill number (LEDGF-IBD (wt IBD)): 11±3
- binding to Asp366Asn-IBD vs wt IBD [1]: only the wt IBD binds HTHi

Compound: DQ 168 AEHLKTAVQMAVFIHNY 185KA [INH5, peptide containing both the α5 helix and the turn connecting the α5 helix to the α4 helix]
- concentration midpoint (C0.5) (wt IN [2]): 168 nM
- effect on IN (IN): caused the dissociation of the tetramers and dimers of IN; also recorded: inhibits IN by dissociating the IN dimers and tetramers

Compound: SQA 149 KLEEMNK156ELKKLLAQVRAQ168 W
- affinity for viral DNA compared with HTHi (viral DNA; K156 vs HTHi): manifests a greater affinity for viral DNA than peptide HTHi
- effect of fluorescein at the 5′ extremity on binding modes (LTR34f5′ [3]): suppressed the high affinity binding mode of K156 but preserved the low affinity mode
- pKd (LTR34fm [4]; attachment site on the six outermost bases of viral DNA, read-out: Kd1 (high affinity site)): 8.68
- pKd (LTR34fm [4]; non-specific binding, read-out: Kd2 (low affinity site)): 4.27
- pKd [5]: 4.80

Compound: SQG149VIESMNK156ELKKIIGQVRDQ 168 AEHLKTAVQMAVWIHNF185K [wt HTHi]
- structure compared with that of the mutant bi-helix ([6]; experiments not shown, method not stated): the structure of the wt bi-helix was similar to that of the mutant

Compound: SQG149VVESMNK156ELKKIIGQVRY [α4]
- midpoint of titration curve (C0.5) (wt IN [7]): 53 ± 5 nM
- conformation of isolated peptide ([6]; stated in Discussion): mostly displays random conformation
- DNA binding (in words) (viral DNA; isolated peptide, no value): very poor DNA binder; also recorded: completely unable to specifically bind the viral DNA

Compound: YG149VIESMNK156ELKKIIGQVRDQ 168 AEHLKTAVQMAVFIHNK 185KA [HTHi]
- pKd (LTR34fm [8]; read-out: Kd1 (high affinity site)): 7.30
- pKd (LTR34fm [8]; read-out: Kd2 (low affinity, non-specific site)): 5.72
- pKd (LTR34f5′ [9]; LTR34f5′ 20 nM, monophasic, fluorescence anisotropy, curve fitting, ±10% uncertainty, 40 mM sodium phosphate, 0.5 mM EDTA, pH 6.0, 5°C): 5.54
- effect of fluorescein at the 5′ extremity on high affinity binding (LTR34f5′ [9]; LTR34f5′ vs LTR34fm): The high affinity is abolished
- pKd [10]: 5.18
- midpoint of titration curve (C0.5) (wt IN [7]): 104 ± 8 nM
- helix content compared with component peptides α4 and INH5 ([6]; CD, spectra of α4 from ref [43] and of INH5 from ref [30]): helix content of HTHi is greater than that of peptides α4 [43] and INH5 [30]
- propensity to form oligomers in solution ([6]; high peptide concentration, CD, pH 6.0): propensity of HTHi to form oligomers in solution at high concentration
- helical content ([6]; peptide 6 µM, 40 mM sodium phosphate, 0.5 mM EDTA, pH 6.0, 1 mm path length): 10–15%
- helical content (in words) ([6]; peptide 25 µM, 40 mM sodium phosphate, 0.5 mM EDTA, pH 6.0): weak amount of helix
- change of helical content on binding LTR34 (LTR34): practically doubles its helical content when binding to LTR34
